From patent publication US7015329B2 (Janssen Pharmaceutica N. V., priority 2003, dated 2006)
pEC50: −log10 of the molar value.

Assays:
Format in all cases: cell-based
Details in all cases: 18–24 hrs
PPAR gamma = biological target: T1, PPAR gamma (Homo sapiens, UniProt P37231); assay: Transfection assay for PPAR receptors (GAL4-LBD luciferase reporter), PPAR gamma
T1 construct: expressed in transfected cells; host or cells: HEK293
T1 sequence (P37231 238-503 limits assumed): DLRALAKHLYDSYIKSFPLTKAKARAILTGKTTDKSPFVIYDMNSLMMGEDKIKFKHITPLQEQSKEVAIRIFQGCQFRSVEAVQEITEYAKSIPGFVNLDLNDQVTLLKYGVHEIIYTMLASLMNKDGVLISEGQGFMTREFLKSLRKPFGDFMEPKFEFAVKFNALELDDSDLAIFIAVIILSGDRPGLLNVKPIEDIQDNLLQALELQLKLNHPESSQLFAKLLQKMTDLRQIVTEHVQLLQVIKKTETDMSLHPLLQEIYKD
Method: (§1) Transfection Assay Method for PPAR Receptors
(§2) HEK293 cells were grown in DMEM/F12 medium supplemented with 10% FBS and glutamine (Invitrogen) and incubated in a 5% CO2 incubator at 37° C. The cells were co-transfected using DMRIE-C reagent (Invitrogen) in serum free medium (Opti-MEM, Invitrogen) with two mammalian expression plasmids, one containing the DNA sequence coding for the ligand binding domains of either PPARαg or d fused to the yeast GAL4 DNA binding domain and the other containing the promoter sequence of the yeast GAL4 (UAS) fused to the firefly luciferase cDNA reporter. The next day, the medium was changed to DMEM/F12 medium supplemented with 5% charcoal treated serum (Hyclone) and glutamine. After 6 hrs the cells were trypsinized and seeded at a density of 50,000 cells/well into 96 well plates and incubated overnight as above. The cells were then treated with -test compounds or vehicle and incubated for 18–24 hrs as above. Luciferase reporter activity was measured using the Steady-Glo Luciferase Assay Kit from Promega. DMRIE-C Reagent was purchased from GIBCO Cat. No.10459-014. […] Steady-Glo Luciferase Assay Kit was purchased from Promega (Part#E254B).

PPAR alpha = biological target: T2, PPAR alpha (Homo sapiens, UniProt Q07869); assay: Transfection assay for PPAR receptors (GAL4-LBD luciferase reporter), PPAR alpha
T2 construct: expressed in transfected cells; host or cells: HEK293
T2 sequence (Q07869 239-466 limits assumed): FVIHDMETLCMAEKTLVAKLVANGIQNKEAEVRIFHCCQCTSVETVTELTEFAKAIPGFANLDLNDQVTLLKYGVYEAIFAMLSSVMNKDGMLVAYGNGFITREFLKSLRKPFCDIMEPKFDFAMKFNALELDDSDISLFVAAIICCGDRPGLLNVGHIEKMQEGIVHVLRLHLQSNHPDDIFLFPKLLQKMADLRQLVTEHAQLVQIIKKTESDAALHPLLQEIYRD
Method: as §1
HEK293 cells were grown in DMEM/F12 medium supplemented with 10% FBS and glutamine (Invitrogen) and incubated in a 5% CO2 incubator at 37° C. The cells were co-transfected using DMRIE-C reagent (Invitrogen) in serum free medium (Opti-MEM, Invitrogen) with two mammalian expression plasmids, one containing the DNA sequence coding for the ligand binding domains of either PPARαg or d fused to the yeast GAL4 DNA binding domain and the other containing the promoter sequence of the yeast GAL4 (UAS) fused to the firefly luciferase cDNA reporter. The next day, the medium was changed to DMEM/F12 medium supplemented with 5% charcoal treated serum (Hyclone) and glutamine. After 6 hrs the cells were trypsinized and seeded at a density of 50,000 cells/well into 96 well plates and incubated overnight as above. The cells were then treated with -test compounds or vehicle and incubated for 18–24 hrs as above. Luciferase reporter activity was measured using the Steady-Glo Luciferase Assay Kit from Promega. DMRIE-C Reagent was purchased from GIBCO Cat. No.10459-014. OPTI-MEM I Reduced Serum Medium was purchased from GIBCO (Cat. No. 31985). Steady-Glo Luciferase Assay Kit was purchased from Promega (Part#E254B).
A variety of example compounds have been made and tested, with a range of in vitro results. Below are representative compounds and data; in some cases, where multiple EC50's are shown, multiple measurements were taken. Naturally, different compounds in Formula (I) may have not have activities identical to any one compound below.

PPAR delta = biological target: T3, PPAR delta (Homo sapiens, UniProt Q03181); assay: Transfection assay for PPAR receptors (GAL4-LBD luciferase reporter), PPAR delta
T3 construct: expressed in transfected cells; host or cells: HEK293
T3 sequence (Q03181 211-439 limits assumed): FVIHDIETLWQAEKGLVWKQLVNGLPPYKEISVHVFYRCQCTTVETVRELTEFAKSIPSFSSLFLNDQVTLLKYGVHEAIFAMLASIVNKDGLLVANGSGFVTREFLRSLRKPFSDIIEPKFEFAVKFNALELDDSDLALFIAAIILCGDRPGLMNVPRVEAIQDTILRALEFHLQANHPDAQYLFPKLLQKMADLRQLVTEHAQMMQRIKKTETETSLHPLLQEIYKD
Method: as §1, §2

[1] = Table 1, HEK293 cells co-transfected with PPAR LBD-GAL4 and GAL4 (UAS) luciferase reporter
[2] = Table 2, compounds of interest, HEK293 cells, PPAR LBD-GAL4 luciferase reporter

| Molecule | pEC50 (PPAR gamma; [1]) | pEC50 (PPAR alpha; [1]) | pEC50 (PPAR gamma; [2]) | pEC50 (PPAR alpha; [2]) | pEC50 (PPAR delta; [2]) | pEC50 (PPAR delta; [1]) |
| --- | --- | --- | --- | --- | --- | --- |
| Cc1cc(SCc2nc(-c3ccc(OC(F)(F)F)cc3)ns2)ccc1OC(C)(C)C(=O)O [Compound 4, 2-Methyl-2-{2-methyl-4-[3-(4-trifluoromethoxy-phenyl)-[1,2,4]thiadiazol-5-ylmethylsulfanyl]-phenoxy}-propionic acid] | 4.93 | 7.48 | – | – | – | – |
| Cc1cc(SCc2nc(-c3ccc(C(C)(C)C)cc3)ns2)ccc1OC(C)(C)C(=O)O [Compound 6, 2-{4-[3-(4-tert-Butyl-phenyl)-[1,2,4]thiadiazol-5-ylmethylsulfanyl]-2-methyl-phenoxy}-2-methyl-propionic acid] | < 5.52 | 7.19 | – | – | – | 7.03 |
| Cc1cc(SCc2nsc(-c3ccc(Cl)cc3)n2)ccc1OC(C)(C)C(=O)O [Compound 18, 2-{4-[5-(4-Chloro-phenyl)-[1,2,4]thiadiazol-3-ylmethylsulfanyl]-2-methyl-phenoxy}-2-methyl-propionic acid] | < 5.52 | < 5.52 | – | – | – | 6.63 |
| Cc1cc(SCc2nsc(-c3ccc(OC(F)(F)F)cc3)n2)ccc1OC(C)(C)C(=O)O [Compound 17, 2-Methyl-2-{2-methyl-4-[5-(4-trifluoromethoxy-phenyl)-[1,2,4]thiadiazol-3-ylmethylsulfanyl]-phenoxy}-propionic acid] | – | 6.18 | – | – | – | 7.24 |
| Cc1cc(SCc2nc(-c3ccc(Cl)cc3Cl)ns2)ccc1OC(C)(C)C(=O)O [Compound 10, 2-{4-[3-(2,4-Dichloro-phenyl)-[1,2,4]thiadiazol-5-ylmethylsulfanyl]-2-methyl-phenoxy}-2-methyl-propionic acid] | < 5.52 | 6.32 | – | – | – | 6.99 |
| Cc1ccc(-c2nsc(CSc3ccc(OC(C)(C)C(=O)O)c(C)c3)n2)cc1 [Compound 5, 2-Methyl-2-[2-methyl-4-(3-p-tolyl-[1,2,4]thiadiazol-5-ylmethylsulfanyl)-phenoxy]-propionic acid] | < 5.52 | 6.65 | – | – | – | 7.33 |
| Cc1ccc(-c2nsc(CSc3ccc(OC(C)(C)C(=O)O)c(C)c3)n2)cc1Cl [Compound 12, 2-{4-[3-(3-Chloro-4-methyl-phenyl)-[1,2,4]thiadiazol-5-ylmethylsulfanyl]-2-methyl-phenoxy}-2-methyl-propionic acid] | 6.17 | 7.17 | – | – | – | 7.57 |
| Cc1cc(SCc2nsc(-c3ccc(C(F)(F)F)cc3)n2)ccc1OC(C)(C)C(=O)O [Compound 16, 2-Methyl-2-{2-methyl-4-[5-(4-trifluoromethyl-phenyl)-[1,2,4]thiadiazol-3-ylmethylsulfanyl]-phenoxy}-propionic acid] | < 5.52 | 6.37 | – | – | – | 7.59 |
| Cc1cc(SCc2nc(-c3ccc(Cl)cc3)ns2)ccc1OC(C)(C)C(=O)O [Compound 7, 2-{4-[3-(4-Chloro-phenyl)-[1,2,4]thiadiazol-5-ylmethylsulfanyl]-2-methyl-phenoxy}-2-methyl-propionic acid] | < 5.52 | 6.73 | – | – | – | 7.74 |
| Cc1ccc(-c2nsc(CSc3ccc(OC(C)(C)C(=O)O)c(C)c3)n2)cc1C [Compound 11, 2-{4-[3-(3,4-Dimethyl-phenyl)-[1,2,4]thiadiazol-5-ylmethylsultanyl]-2-methyl-phenoxy}-2-methyl-propionic acid] | – | 6.94 | – | – | – | 7.03 |
| CC(C)(Oc1ccc(SCc2nc(-c3ccc(C(F)(F)F)cc3)ns2)cc1)C(=O)O [Compound 2, 2-Methyl-2-{4-[3-(4-trifluoromethyl-phenyl)-[1,2,4]thiadiazol-5-ylmethylsulfanyl]-phenoxy}-propionic acid] | – | 6.81 | – | – | – | 7.70 |
| Cc1cc(SCc2nc(-c3ccc(C(F)(F)F)cc3)ns2)ccc1OC(C)(C)C(=O)O [Compound 3, 2-Methyl-2-{2-methyl-4-[3-(4-trifluoromethyl-phenyl)-[1,2,4]thiadiazol-5-ylmethylsulfanyl]-phenoxy}-propionic acid] | – | 7.06 | – | – | – | 8.12 |
| Cc1cc(SCc2nc(-c3ccc(C(F)(F)F)cc3)ns2)ccc1OCC(=O)O [Compound 1, {2-Methyl-4-[3-(4-trifluoromethyl-phenyl)-[1,2,4]thiadiazol-5-ylmethylsulfanyl]-phenoxy}-acetic acid] | – | 6.33 | – | – | – | 8.00 |
| {2-Methyl-4-[5-(4-trifluoromethyl-phenyl)-pyridin-3-ylmethylsulfanyl]-phenoxy}-acetic acid [Compound e] | – | – | – | < 5.52 | – | – |

Other lines, results leading:

| pEC50 (PPAR gamma; [1]) | pEC50 (PPAR alpha; [1]) | pEC50 (PPAR gamma; [2]) | pEC50 (PPAR alpha; [2]) | pEC50 (PPAR delta; [2]) | pEC50 (PPAR delta; [1]) | Molecule |
| --- | --- | --- | --- | --- | --- | --- |
| – | – | < 5.52 | < 5.52 | – | – | Cc1cc(SCc2cc(-c3ccc(C(F)(F)F)cc3)sn2)ccc1OCC(=O)O [Compound b, {2-Methyl-4-[5-(4-trifluoromethyl-phenyl)-isothiazol-3-ylmethylsulfanyl]-phenoxy}-acetic acid] |
| – | – | < 5.52 | < 5.52 | 6.39 | – | Cc1cc([S+]([O-])Cc2nc(-c3ccc(Cl)c(Cl)c3)ns2)ccc1OC(C)(C)C(=O)O (stereo not shown) [Compound a, 2-{4-[3-(3,4-Dichloro-phenyl)-[1,2,4]thiadiazol-5-ylmethanesulfinyl]-2-methyl-phenoxy}-2-methyl-propionic acid] |
| – | – | < 5.52 | < 6.00 | – | – | Cc1cc(SCc2cc(-c3ccc(C(F)(F)F)cc3)ns2)ccc1OCC(=O)O [Compound c, {2-Methyl-4-[3-(4-trifluoromethyl-phenyl)-isothiazol-5-ylmethylsulfanyl]-phenoxy}-acetic acid] |
| < 5.52 | 6.30 | – | – | – | 6.94 | Cc1cc(OCc2nc(-c3ccc(Cl)c(Cl)c3)ns2)ccc1OC(C)(C)C(=O)O [Compound 26, 2-{4-[3-(3,4-Dichloro-phenyl)-[1,2,4]thiadiazol-5-ylmethoxy]-2-methyl-phenoxy}-2-methyl-propionic acid] |
| < 5.52 | 7.03 | – | – | – | – | Cc1cc(OCc2nc(-c3ccc(C(F)(F)F)cc3)ns2)ccc1OC(C)(C)C(=O)O [Compound 23, 2-Methyl-2-{2-methyl-4-[3-(4-trifluoromethyl-phenyl)-[1,2,4]thiadiazol-5-ylmethoxy]-phenoxy}-propionic acid] |
| – | – | < 5.52 | 5.66 | – | – | Cc1cc(SCc2cc(-c3ccc(C(F)(F)F)cc3)on2)ccc1OCC(=O)O [Compound g, {2-Methyl-4-[5-(4-trifluoromethyl-phenyl)-isoxazol-3-ylmethylsulfanyl]-phenoxy}-acetic acid] |
| – | – | < 5.52 | < 5.52 | – | – | Cc1cc(SCc2cc(-c3ccc(C(F)(F)F)cc3)no2)ccc1OCC(=O)O [Compound f, {2-Methyl-4-[3-(4-trifluoromethyl-phenyl)-isoxazol-5-ylmethylsulfanyl]-phenoxy}-acetic acid] |
| 6.33 | 7.43 | – | – | – | – | Cc1cc(SCCc2nc(-c3ccc(C(F)(F)F)cc3)ns2)ccc1OC(C)(C)C(=O)O [Compound 28, 2-Methyl-2-(2-methyl-4-{2-[3-(4-trifluoromethyl-phenyl)-[1,2,4]thiadiazol-5-yl]-ethylsulfanyl}-phenoxy)-propionic acid] |
